Data on 15 compounds can be found in patent publication US20260364089A1, “PYRIDOPYRIMIDINE KRAS INHIBITORS” (Treeline Biosciences, Inc., priority 2022, published 2026).

Read-outs that look alike come from different tables or passages of the source.

As a reminder, the IC50 is the concentration at which inhibition is half-maximal.

The assay addresses T1, KRas G12V (Homo sapiens, UniProt P01116, G12V).
T1 construct: Biotinylated KRas G12V (aa 1-169) loaded with GDP nucleotide; biotin (biotinylated)
Kind of assay: SOS1-Catalyzed Nucleotide Exchange Assay, KRas G12V (Method 2). The note with it: 5 nM KRas G12V (aa 1-169, GDP-loaded), 50 nM SOS1. In kind it is biochemical. The protocol:
KRas G12V [Method 2]: Compounds were pre-dispensed via Echo liquid handling (acoustic, touch-free) to generate assay ready plates (ARP). More precisely, a 10-point concentration response curve for each compound was prepared with appropriate top concentration (1 μM, 10 μM, 100 μM). Biotinylated KRas G12V (aa 1-169) loaded with GDP nucleotide and Streptavidin-Europium (SA-EU, Columbia Biosciences) were preincubated in assay buffer (20 mM HEPES pH 7.4, 150 mM NaCl, 5 mM MgCl2, 1 mM DTT, 0.01% Brij-35, 0.3 mg/mL BSA) on ice for 30 min. Separately SOS1 (aa 546-1049) and EDA-GTP-DY647P1 (Jena Bioscience) were preincubated in assay buffer on ice for 30 min. After 30 minutes of incubation for the assay components, 5 μL buffer and 5 μL of KRas G12V-SA-Eu were added to each well of the ARP. After a further 30 min, 5 μL of SOS1-EDA-GTP-D467P1 was added to start the nucleotide exchange reaction. Final concentration in the assay were 5 nM KRas G12V, 50 nM SOS1 (aa 564-1049). The reaction was allowed to proceed for 60-90 minutes after which the plate was read on a plate reader. After normalization of the raw data, the data was fit to a four-parameter logistic curve.

Where [1] appears, read: Method 2, B, read-out: KRas G12V IC50 (nM) (Method 2, B).
Where [2] appears, read: Method 2, A, read-out: KRas G12V IC50 (nM) (Method 2, A).

T1 sequence (P01116 1-169 G12V): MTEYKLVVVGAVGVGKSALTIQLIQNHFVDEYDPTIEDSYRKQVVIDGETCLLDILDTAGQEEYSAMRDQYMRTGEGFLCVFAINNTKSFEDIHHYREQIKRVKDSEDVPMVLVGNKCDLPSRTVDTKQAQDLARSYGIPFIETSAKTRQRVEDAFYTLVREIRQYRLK

`Nc1cc2c(c(Cl)c1F)CCCCC(=O)NCCC1COCCN(C1)c1nc(OC[C@@]34CCCN3C[C@H](F)C4)nc3c(F)c-2ncc13` (stereo partly drawn) [Compound 185a, 3^5-amino-3^3-chloro-2^8,3^4-difluoro-2^2-(((2R,7aS)-2-fluorotetrahydro-1H-pyrrolizin-7a(5H)-yl)methoxy)-9-aza-1(4,6)-oxazepana-2(4,7)-pyrido[4,3-d]pyrimidina-3(1,2)-benzenacycloundecaphan-8-one]: under setting [1], the IC50 was 100 to 1000 nM.
On the same count and under the same terms, the figure for `Nc1cc2c(c(Cl)n1)CCCCC(=O)NCCC1CCCN(C1)c1nc(OC[C@@]34CCCN3C[C@H](F)C4)nc3c(F)c-2ncc13` (stereo partly drawn) [Compound 186a, 1^6-amino-1^2-chloro-2^8-fluoro-2^2-(((2R,7aS)-2-fluorotetrahydro-1H-pyrrolizin-7a(5H)-yl)methoxy)-6-aza-2(7,4)-pyrido[4,3-d]pyrimidina-1(4,3)-pyridina-3(1,3)-piperidinacycloundecaphan-7-one] is 100 to 1000 nM; for `Nc1cc2c(c(Cl)n1)CCCCC(=O)NCCC1(O)CCCN(C1)c1nc(OC[C@@]34CCCN3C[C@H](F)C4)nc3c(F)c-2ccc13` (stereo partly drawn) [Compound 187a, 1^6-amino-1^2-chloro-2^8-fluoro-2^2-(((2R,7aS)-2-fluorotetrahydro-1H-pyrrolizin-7a(5H)-yl)methoxy)-3^3-hydroxy-6-aza-2(7,4)-quinazolina-1(4,3)-pyridina-3(1,3)-piperidinacycloundecaphan-7-one] it is 1000 to 10000 nM.
With `Nc1cc2c3c(c(F)ccc3c1)CCCC(=O)NCCC1CCCN(C1)c1nc(OC[C@@]34CCCN3C[C@H](F)C4)nc3c(F)c-2ncc13` (stereo partly drawn) [Compound 189a, 3^3-amino-2^8,3^7-difluoro-2^2-(((2R,7aS)-2-fluorotetrahydro-1H-pyrrolizin-7a(5H)-yl)methoxy)-8-aza-2(4,7)-pyrido[4,3-d]pyrimidina-1(1,3)-piperidina-3(1,8)-naphthalenacyclodecaphan-7-one], the IC50 is, setting by setting: under setting [2], 100 to 1000 nM; under setting [1], 100 to 1000 nM.
On to `Nc1cc2c3c(c(F)ccc3c1)CCCC(=O)NCCC1CCCN(C1)c1nc(OC[C@@]34CCCN3C[C@H](F)C4)nc3c(F)c-2ccc13` (stereo partly drawn) [Compound 190a, 3^3-amino-2^8,3^7-difluoro-2^2-(((2R,7aS)-2-fluorotetrahydro-1H-pyrrolizin-7a(5H)-yl)methoxy)-8-aza-2(4,7)-quinazolina-1(1,3)-piperidina-3(1,8)-naphthalenacyclodecaphan-7-one], for which the IC50 by setting is: under setting [2], 100 to 1000 nM; under setting [1], 100 to 1000 nM.
For the compound `O=C1CCCc2c(F)ccc3cccc(c23)-c2ccc3c(nc(OC[C@@]45CCCN4C[C@H](F)C5)nc3c2F)N2CCCC(CCN1)C2` (stereo partly drawn) [Compound 191a, 2^8,3^7-difluoro-2^2-(((2R,7aS)-2-fluorotetrahydro-1H-pyrrolizin-7a(5H)-yl)methoxy)-8-aza-2(4,7)-quinazolina-1(1,3)-piperidina-3(1,8)-naphthalenacyclodecaphan-7-one], the IC50 by setting is: under setting [2], 100 to 1000 nM; under setting [1], no more than 100 nM.
The corresponding values for `Nc1cc2c3c(c(F)ccc3c1)CCCC(=O)NCC1COCCN(C1)c1nc(OC[C@@]34CCCN3C[C@H](F)C4)nc3c(F)c-2ncc13` (stereo partly drawn) [Compound 192a, 3^3-amino-2^8,3^7-difluoro-2^2-(((2R,7aS)-2-fluorotetrahydro-1H-pyrrolizin-7a(5H)-yl)methoxy)-8-aza-1(4,6)-oxazepana-2(4,7)-pyrido[4,3-d]pyrimidina-3(1,8)-naphthalenacyclononaphan-7-one] are 100 to 1000 nM and 100 to 1000 nM.
Regarding `O=C1CCCc2c(F)ccc3cccc(c23)-c2ncc3c(nc(OC[C@@]45CCCN4C[C@H](F)C5)nc3c2F)N2CCOCC(CN1)C2` (stereo partly drawn) [Compound 193a, 2^8,3^7-difluoro-2^2-(((2R,7aS)-2-fluorotetrahydro-1H-pyrrolizin-7a(5H)-yl)methoxy)-8-aza-1(4,6)-oxazepana-2(4,7)-pyrido[4,3-d]pyrimidina-3(1,8)-naphthalenacyclononaphan-7-one], the IC50 was in the range of 100 to 1000 nM under setting [2] and 100 to 1000 nM under setting [1].
`O=C1CCCc2c(F)ccc3cc(O)cc(c23)-c2ncc3c(nc(OC[C@@]45CCCN4C[C@H](F)C5)nc3c2F)N2CCOCC(CCN1)C2` (stereo partly drawn) [Compound 194a, 2^8,3^7-difluoro-2^2-(((2R,7aS)-2-fluorotetrahydro-1H-pyrrolizin-7a(5H)-yl)methoxy)-3^3-hydroxy-8-aza-1(4,6)-oxazepana-2(4,7)-pyrido[4,3-d]pyrimidina-3(1,8)-naphthalenacyclodecaphan-7-one]: the IC50 is no more than 100 nM under setting [2] and no more than 100 nM under setting [1].
For `O=C1CCCc2c(F)ccc3cc(O)cc(c23)-c2ccc3c(nc(OC[C@@]45CCCN4C[C@H](F)C5)nc3c2F)N2CCOCC(CCN1)C2` (stereo partly drawn) [Compound 195a, 2^8,3^7-difluoro-2^2-(((2R,7aS)-2-fluorotetrahydro-1H-pyrrolizin-7a(5H)-yl)methoxy)-3^3-hydroxy-8-aza-1(4,6)-oxazepana-2(4,7)-quinazolina-3(1,8)-naphthalenacyclodecaphan-7-one], the IC50 under setting [2] was no more than 100 nM and the IC50 under setting [1] is no more than 100 nM.
For the compound `O=C1CCCCc2c(Cl)cc3[nH]ncc3c2-c2ncc3c(nc(OC[C@@]45CCCN4C[C@H](F)C5)nc3c2F)N2CCCC(CCN1)C2` (stereo partly drawn) [Compound 196a, 1^6-chloro-2^8-fluoro-2^2-(((2R,7aS)-2-fluorotetrahydro-1H-pyrrolizin-7a(5H)-yl)methoxy)-1^1H-6-aza-2(7,4)-pyrido[4,3-d]pyrimidina-1(4,5)-indazola-3(1,3)-piperidinacycloundecaphan-7-one], under setting [1], the IC50 was no more than 100 nM.
For the compound `O=C1CCCCc2c(Cl)cc3[nH]ncc3c2-c2ccc3c(nc(OC[C@@]45CCCN4C[C@H](F)C5)nc3c2F)N2CCOCC(CN1)C2` (stereo partly drawn) [Compound 198a, 3^6-chloro-2^8-fluoro-2^2-(((2R,7aS)-2-fluorotetrahydro-1H-pyrrolizin-7a(5H)-yl)methoxy)-3^1H-9-aza-1(4,6)-oxazepana-2(4,7)-quinazolina-3(4,5)-indazolacyclodecaphan-8-one], under setting [1], the IC50 is no more than 100 nM.
`O=C1CCCCc2c(Cl)cc3[nH]ncc3c2-c2ccc3c(nc(OC[C@@]45CCCN4C[C@H](F)C5)nc3c2F)N2CCCC(O)(CCN1)C2` (stereo partly drawn) [Compound 199a, 1^6-chloro-2^8-fluoro-2^2-(((2R,7aS)-2-fluorotetrahydro-1H-pyrrolizin-7a(5H)-yl)methoxy)-3^3-hydroxy-1^1H-6-aza-2(7,4)-quinazolina-1(4,5)-indazola-3(1,3)-piperidinacycloundecaphan-7-one]: the IC50 under setting [1] was no more than 100 nM.
The same measure, in the same setting: the figure for `O=C1CCCCc2c(Cl)cc3[nH]ncc3c2-c2c(F)cc3c(nc(OC[C@@]45CCCN4C[C@H](F)C5)nc3c2F)N2CCOCC(CN1)C2` (stereo partly drawn) [Compound 200a, 3^6-chloro-2^6,2^8-difluoro-2^2-(((2R,7aS)-2-fluorotetrahydro-1H-pyrrolizin-7a(5H)-yl)methoxy)-3^1H-9-aza-1(4,6)-oxazepana-2(4,7)-quinazolina-3(4,5)-indazolacyclodecaphan-8-one] is no more than 100 nM.
Still for that read-out and setting: the figure for `Nc1cc(Cl)c2c(c1)-c1ncc3c(nc(OC[C@@]45CCCN4C[C@H](F)C5)nc3c1F)N1C[C@H](F)C[C@H](C1)NC(=O)CCCC2` [Compound 201a, (1^3R,1^5R)-3^5-amino-3^3-chloro-1^5,2^8-difluoro-2^2-(((2R,7aS)-2-fluorotetrahydro-1H-pyrrolizin-7a(5H)-yl)methoxy)-9-aza-2(4,7)-pyrido[4,3-d]pyrimidina-1(1,3)-piperidina-3(1,2)-benzenacyclononaphan-8-one] is 100 to 1000 nM.
